Legend:
MCF7 cells = test: MTT cell viability assay; type: cell-based; conditions: MCF7, 1-30 uM, 48 h
Method: (§1) Cell Culture. MCF7, MDA-MB-231 and MCF10-A cells were obtained from the American Type Culture Collection (ATCC) and cultured at 37° C. in humidified 95% air/5% CO2. MCF7 cells were maintained in MEM-alpha medium containing 10% FBS, L-glutamine (4 mM), penicillin (100 μg/ml), streptomycin (100 μg/ml), non-essential amino acids and sodium pyruvate. MDA-MB-23 were grown in Dulbecco's Modified Eagle's medium (DMEM) containing 10% FBS, L-glutamine (4 mM), penicillin (100 μg/ml), and streptomycin (100 μg/ml). MCF10-A cells were maintained in F-12 media supplemented with 20% FHS, hydrocortisone, cholera toxin, penicillin, streptomycin, and endothelial cell growth factor (ECGF). Typically, the day of the treatment, various concentrations of the nitroxides were added to the cells directly in the media.
(§2) The MTT assay (Sigma-Aldrich, Milwaukee, Wis.) was used to measure cell survival using quantitative colorimetry (λ=570 nm). This assay is based on the capacity of mitochondrial dehydrogenases to reduce MTT to form the insoluble formazan product. Cells were plated in 12-well plates and treated at pre-confluency with Mito-CP and CP (0-30 μM) in their respective media for 48 h. The culture media was removed after treatment, washed gently with DPBS and MTT (5 mg/ml in media) was added to each well, following incubation of the plates for 1 h at 37° C. The MTT solution was removed and the formazan product in each well was dissolved with dimethyl sulfoxide (DMSO). The optical density of each well was measured using an Agilent 8453 UV-Vis spectrometer at 570 nm.
(§3) MCF7, MDA-MB-231 and non-tumorigenic MCF10-A were grown to pre-confluency and treated with either Mito-CP or parent compound CP (1-30 uM) for 48 h and cell viability was measured using the MTT assay.

MDA-MB-231 cells = test: MTT cell viability assay; type: cell-based; conditions: MDA-MB-231, 1-30 uM, 48 h
Method: as §1, §2, §3

[1] = tested on: non-tumorigenic MCF10-A breast epithelial cells; test: MTT cell viability assay; type: cell-based; conditions: normal MCF10-A, 1-30 uM, 48 h
Method: as §1, §2, §3

[2] = T1 (longitudinal) relaxivity in buffered saline by spin echo inversion recovery MRI; type: physicochemical; conditions: buffered saline (DPBS)
Method: T1 Relaxivity at 1.5 Tesla. The longitudinal relaxivities of CP and Mito-CP were determined using a LX 1.5 T GE Scanner (GE, Waukesha, Wis.) using an 8-channel head rf coil. Solutions of CP and Mito-CP were diluted with Dulbecco's Phosphate Buffered Saline (DPBS) to the following concentrations: 5.0 μM, 10.0 μM, 20.0 μM, 50.0 μM, 100.0 μM, 200.0 μM, 300.0 μM, 500.0 μM, 700.0 μM, 1.0 mM, 2.0 mM, 5.0 mM, 10.0 mM, and 20.0 mM. Longitudinal relaxation times (T1) for each solution and relaxivities (R1) for CP and Mito-CP were calculated using images from a standard spin echo sequence (TE=14 msec, TR=10 sec) at various inversion times (TI=50, 125 msec incrementing by 125 msec to 3500 msec and 4000 msec).
T1 Relaxivity at 3.0 Tesla. The longitudinal relaxivities of CP and Mito-CP were determined using a Signa 3.0 T GE Scanner (GE, Waukesha, Wis.) using a custom rf quadrature coil. Solutions of CP and Mito-CP were diluted with Dulbecco's Phosphate Buffered Saline (DPBS) to the following concentrations: 1.0 μM, 10.0 μM, 100.0 μM, 1.0 mM, 10.0 mM, and 20.0 mM. Longitudinal relaxation times (T1) for each solution and relaxivities (R1) for CP and Mito-CP were calculated using images from a standard spin echo sequence (TE=9 msec, TR=15 sec) at various inversion times (TI=100 msec incrementing by 100 msec to 4000 msec and 50, 150, 1050, 1150 msec).
T1 Relaxivity at 9.4 Tesla. Both solutions were diluted with Dulbecco's Phosphate Buffered Saline (DPBS) to the following concentrations: […], 1.0 mM, 10.0 mM, and 20.0 mM. Longitudinal relaxation times (T1) for each solution and relaxivities (R1) for CP and Mito-CP were calculated using a standard spin echo sequence (TE=9 msec, TR=15,000 msec) at various inversion times (TI=100 msec incrementing by 100 msec to 4000 msec and 50, 150, 1050, 1150 msec).
The longitudinal relaxivities of other nitroxides have been approximate […]. In order to assess the longitudinal relaxivity of CP and Mito-CP, concentrations were prepared with the expectation of this relaxivity. Two separate initial solutions of CP and Mito-CP were prepared. Longitudinal relaxivities were determined for both CP and Mito-CP at three field strengths. Relaxivities were obtained from non-linear fits of standard spin echo inversion recovery images calculated using Matlab.

[3] = tested on: isolated rabbit heart mitochondria; test: In vitro localization in isolated mitochondria, MRI T1 analysis; conditions: for T1 / enhancement of treated mitochondria (uptake): 10 uM, 37° C. 10 minutes, 3.0 T, compared to mitochondria alone
Method: The experiment was carried out on a Signa 3.0 T GE scanner (GE, Waukesha, Wis.) using a custom quadrature rf coil with a G10 fiberglass vial rack. Rabbit heart mitochondria were isolated. For verification of MR detectable mitochondrial accumulation of Mito-CP, isolated rabbit mitochondria were separated into […] eppendorf tubes each containing 40 μL of 15 mg/ml mitochondria. Six eppendorf tubes were prepared as indicated in Table 1 below (1-6), and three additional eppendorf tubes were prepared from the supernatant of tubes 4-6 (4b-6b): Note that succinate is needed to activate the mitochondrial respiratory chain, necessary for normal function. All tubes were incubated at 37° C. for 10 minutes. Immediately following incubation, all tubes were centrifuged at 1,000×g for 4 minutes at 4° C. The supernatant was then transferred into another eppendorf tube. The mitochondria in tubes 4-6 were re-suspended with the addition of […] of DPBS and allowed to settle naturally. […] To determine the specificity that Mito-CP has toward mitochondria, the compound carboxy-proxyl (CP) was used for comparison. CP is a 5-member nitroxide ring, depicted in FIG. 1, without the ten chain linking carbons and the triphenylphosphonium. […] These properties make CP an ideal control for specificity of Mito-CP toward mitochondria.

[4] = for EPR signal of blood following treatment with ferricyanide: rat blood from catheter after dynamic EPR spectra
[5] = cited from earlier work

| Compound | induction of cancer cell apoptosis / cell viability (MTT) (MCF7 cells) | induction of cancer cell apoptosis / cell viability (MTT) (MDA-MB-231 cells) | induction of apoptosis / cell viability (MTT) [1] | longitudinal relaxivity R1 ([2]; 3.0 T) [mM⁻¹ s⁻¹] | T1 / enhancement of treated mitochondria (uptake) [3] | EPR signal of blood following treatment with ferricyanide [4] | permeability to lipid membranes [5] | longitudinal relaxivity R1 ([2]; 1.5 T) [mM⁻¹ s⁻¹] | longitudinal relaxivity R1 ([2]; 9.4 T) [mM⁻¹ s⁻¹] | increase in concentration within the mitochondria compared to the incubating solution ([3]; 10 uM incubating solution) [fold] | estimated mitochondrial associated tissue concentration ([3]; 10 uM incubating solution, calculated from relaxivity and T1) [mM] | time to elimination/reduction from the blood ([4]; rat, following bolus injection) [min] | in vivo half-life in blood ([4]; single rat, tail-vein bolus, monoexponential fit after peak) |
| --- | --- | --- | --- | --- | --- | --- | --- | --- | --- | --- | --- | --- | --- |
| CC1(C)CC(C(=O)O)C(C)(C)N1[O] (stereo not shown) [CP, carboxy-proxyl, reference compound] | did not | did not | no influence inducing apoptosis | 0.1546 ± 0.00567 | did not enhance considerably | not back to its initial level | impermeable to lipid membranes | – | – | – | – | – | – |
| (11-(3-carboxy-2,2,5,5-tetramethyl-1-pyrrolidinyloxy)-undecyl)-triphenylphosphonium bromide [Mito-CP] | induced cancer cell apoptosis | induced cancer cell apoptosis | no influence inducing apoptosis | 0.2322 ± 0.0151 | shortened T1, indicating uptake | signal was recovered | – | 0.1643 ± 0.01314 | 0.2083 ± 0.0431 | ≥ 140 | 0.143 | ≤ 30 | approximately 2 minutes |

— patent US8388936B2, “In vivo mitochondrial labeling using positively-charged nitroxide enhanced and gadolinium chelate enhanced magnetic resonance imaging” (MCW Research Foundation, Inc., priority 2008, dated 2013)
